Measured values published in patent US6124351A, “Amino acid derivatives having a nitric oxide synthase inhibiting action” (priority 1994, dated 2000).
“Also recorded” adds a separate entry of the source. Structures can show the parent of a compound that is named as a salt. Where two headings read alike, the source gives them in different places.

Columns and labels:
[1] = biological target: T1, E-cNOS (Bos taurus, UniProt P29473); experiment: Inhibition of E-cNOS, homogenate of cow pulmonary arterial endothelium cell (CPAE); conversion of L-[3H] arginine to L-[3H] citrulline; type: biochemical
T1 construct: the mixture was homogenized for 3 min to yield the crude enzyme sample of E-cNOS; endogenous in cells; host or cells: CPAE (cow pulmonary arterial endothelium cells), whole homogenate
T1 sequence (P29473 2-1205): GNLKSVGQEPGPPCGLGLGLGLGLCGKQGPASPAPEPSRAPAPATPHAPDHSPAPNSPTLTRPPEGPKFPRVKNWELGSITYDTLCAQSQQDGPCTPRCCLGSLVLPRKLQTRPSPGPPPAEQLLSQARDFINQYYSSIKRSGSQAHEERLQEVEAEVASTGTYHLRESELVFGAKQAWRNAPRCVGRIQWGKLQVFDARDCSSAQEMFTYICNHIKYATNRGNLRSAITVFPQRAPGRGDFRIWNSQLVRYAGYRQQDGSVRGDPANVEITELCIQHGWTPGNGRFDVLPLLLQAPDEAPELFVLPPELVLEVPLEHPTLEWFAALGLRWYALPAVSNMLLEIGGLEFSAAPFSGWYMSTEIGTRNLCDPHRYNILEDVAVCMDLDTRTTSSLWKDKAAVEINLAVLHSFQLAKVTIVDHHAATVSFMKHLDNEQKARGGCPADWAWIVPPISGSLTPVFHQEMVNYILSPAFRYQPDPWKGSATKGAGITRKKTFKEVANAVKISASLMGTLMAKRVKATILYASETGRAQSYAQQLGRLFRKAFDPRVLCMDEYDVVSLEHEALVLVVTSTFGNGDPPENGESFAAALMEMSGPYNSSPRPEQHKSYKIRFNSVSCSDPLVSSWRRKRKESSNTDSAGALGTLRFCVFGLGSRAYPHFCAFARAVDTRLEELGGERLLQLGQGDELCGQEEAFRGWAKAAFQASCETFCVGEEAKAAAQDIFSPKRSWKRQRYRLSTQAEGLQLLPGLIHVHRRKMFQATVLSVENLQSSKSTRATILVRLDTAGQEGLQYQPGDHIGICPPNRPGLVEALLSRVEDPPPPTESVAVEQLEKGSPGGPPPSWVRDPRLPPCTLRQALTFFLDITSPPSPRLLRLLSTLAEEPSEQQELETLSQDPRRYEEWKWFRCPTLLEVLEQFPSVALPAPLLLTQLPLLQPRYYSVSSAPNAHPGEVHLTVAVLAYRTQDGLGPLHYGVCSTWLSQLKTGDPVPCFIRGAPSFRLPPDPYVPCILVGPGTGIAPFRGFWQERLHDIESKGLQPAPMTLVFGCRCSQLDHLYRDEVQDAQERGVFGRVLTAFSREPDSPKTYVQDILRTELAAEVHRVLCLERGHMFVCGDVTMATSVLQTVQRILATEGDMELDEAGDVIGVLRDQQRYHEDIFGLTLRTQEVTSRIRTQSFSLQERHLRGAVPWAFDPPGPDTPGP
Experimental: (§1) Compounds of the invention were evaluated for their inhibitory effect against NOS isoforms in comparison with the well known NOS inhibitors. The following were used as crude enzyme fractions of the respective NOS isoforms: a soluble fraction of the rat cerebral cortex for N-cNOS and a homogenate of cow pulmonary arterial endothelium cell (CPAE) for E-cNOS, whereas for iNOS, rats were administered lipopolysaccharide (LPS, 10 mg/kg, i.p.) and lungs were removed 6 h later to prepare soluble fractions.
The crude enzyme sample of E-cNOS was prepared by the following procedure. A cow pulmonary arterial endothelium cell (CPAE) was cultured in a MEM medium containing 20% of FBS. Several days later, the cells were detached from the flask using a solution of 0.25% trypsin containing 1 mM EDTA and after addition of 0.1 M phosphate-buffered saline (PBS; pH 7.4) diluted with physiological saline, centrifugation was conducted at 1,000 rpm for 5 min. The supernate was then discarded and upon addition of a suitable amount of PBS, centrifugation was performed at 1,000 rpm for 5 min to wash the cells. The same procedure was repeated using 50 mM Tris-HCl containing 1 mM DTT (pH 7.4) to wash the cells. The precipitating cells were added an adequate amount of 50 mM Tris-HCl containing 1 mM DTT (pH 7.4) and the mixture was homogenized for 3 min to yield the crude enzyme sample of E-cNOS.
(§2) The reaction was started by addition of L-[^3 H] arginine and following incubation at 37° C. for 10 min, the reaction was terminated by addition of 2 ml of 50 mM Tris-HCl (pH 5.5) containing 1 mM EDTA and placing the mixture on ice. The reaction solution was passed through a cation-exchange resin column (Dowex AG50WX-8, Na^+ form, 3.2 ml) to separate the reaction product L-[^3 H] citrulline from the unreacted residual substrate L-[^3 H] arginine. The elute was combined with another elute resulting from the passage of distilled water (3 ml) through the column and put into a mini vial for recovery of L-[^3 H] citrulline. Thereafter, 5 ml of a scintillation fluid was added and the contained radioactivity was measured with a liquid scintillation counter to determine the amount of L-[^3 H] citrulline. The protein concentration of each crude enzyme sample was determined with a micro-assay kit of Biorad Co.
(§3) All data in Table 4 are expressed by mean ± standard error, with the number of cases indicated within parentheses.

[2] = biological target: T2, iNOS (Rattus norvegicus, UniProt Q06518); experiment: Inhibition of iNOS, soluble fraction of lungs of LPS-treated rats; conversion of L-[3H] arginine to L-[3H] citrulline; type: biochemical
T2 construct: a soluble cytosolic fraction of the finally obtained supernate was used as the crude enzyme sample of iNOS; from tissue; host or cells: lungs of LPS-treated rats, 100,000×g soluble cytosolic fraction
T2 sequence (Q06518 whole entry): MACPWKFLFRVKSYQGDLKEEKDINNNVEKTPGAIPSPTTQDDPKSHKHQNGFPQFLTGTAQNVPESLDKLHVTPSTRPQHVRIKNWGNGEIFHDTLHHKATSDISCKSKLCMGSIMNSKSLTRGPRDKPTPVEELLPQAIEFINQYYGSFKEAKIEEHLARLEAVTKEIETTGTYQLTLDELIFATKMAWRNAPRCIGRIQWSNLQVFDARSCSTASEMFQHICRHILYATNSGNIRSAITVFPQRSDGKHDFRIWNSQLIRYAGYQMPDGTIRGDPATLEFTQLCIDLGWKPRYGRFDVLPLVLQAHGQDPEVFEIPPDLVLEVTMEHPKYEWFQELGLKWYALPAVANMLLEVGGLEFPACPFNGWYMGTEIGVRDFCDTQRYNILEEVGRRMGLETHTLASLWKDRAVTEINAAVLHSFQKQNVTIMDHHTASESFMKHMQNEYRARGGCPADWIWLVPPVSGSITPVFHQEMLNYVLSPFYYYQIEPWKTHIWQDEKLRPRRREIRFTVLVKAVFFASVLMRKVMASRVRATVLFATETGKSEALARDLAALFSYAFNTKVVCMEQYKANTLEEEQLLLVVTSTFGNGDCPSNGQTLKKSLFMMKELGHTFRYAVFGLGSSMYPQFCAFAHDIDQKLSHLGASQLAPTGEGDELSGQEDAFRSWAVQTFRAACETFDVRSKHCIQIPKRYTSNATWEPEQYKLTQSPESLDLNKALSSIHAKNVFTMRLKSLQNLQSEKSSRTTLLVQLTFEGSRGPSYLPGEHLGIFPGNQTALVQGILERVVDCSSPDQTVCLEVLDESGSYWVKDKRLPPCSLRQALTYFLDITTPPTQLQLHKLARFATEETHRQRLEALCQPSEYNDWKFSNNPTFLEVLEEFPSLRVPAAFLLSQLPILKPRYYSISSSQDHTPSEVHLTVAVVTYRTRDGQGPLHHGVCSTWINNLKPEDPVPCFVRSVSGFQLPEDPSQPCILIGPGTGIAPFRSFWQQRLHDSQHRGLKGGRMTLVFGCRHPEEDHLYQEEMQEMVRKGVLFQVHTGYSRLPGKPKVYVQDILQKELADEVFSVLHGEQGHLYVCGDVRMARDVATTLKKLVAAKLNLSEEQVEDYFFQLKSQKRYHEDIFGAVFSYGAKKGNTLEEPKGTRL
Experimental: as §1
The crude enzyme sample of iNOS was prepared by the following procedure. Rats were administered intraperitoneally with LPS (10 mg/kg) and, 6 h later, perfused in a transcardiac manner with physiological saline containing 10 U/ml of heparin; thereafter, lungs were removed. Subsequently, 5 volumes of 50 mM Tris-HCl containing 1 mM DTT (pH 7.4) was added and the mixture was homogenized for 3 min, followed by centrifugation of the homogenate at 1,000×g for 10 min. The resulting supernate was centrifuged at 100,000×g for 60 min and a soluble cytosolic fraction of the finally obtained supernate was used as the crude enzyme sample of iNOS.
The method of measuring NOS activity was basically the same as already reported by the present inventors and consisted of determining quantitatively the conversion of a substrate L-[^3 H] arginine to a reaction product L-[^3 H] citrulline [Nagafuji et al., in Brain Edema IX (Ito et al. eds.) 60, pp. 285-288, 1994, Acta Neurochir., Springer-Verlag].
The reaction solution consisted of 100 μM L-[^3 H] arginine, a prepared NOS enzyme (6-20 μg/ml protein), 1.25 mM CaCl2, 1 mM EDTA, 10 μg/ml calmodulin, 1 mM NADPH, 100 μM tetrahydrobiopterine, 10 μM FAD, 10 μM FMN and 50 mM Tris-HCl (pH 7.4), to which one of the compounds of the invention or one of the control compounds was added.
as §2, §3

[3] = biological target: T3, N-cNOS (Rattus norvegicus, UniProt P29476); experiment: biochemical; settings: for IC50: N-cNOS, rat cerebral cortex, 100 μM L-[3H] arginine, 37° C., 10 min, pH 7.4, mean ± standard error
T3 construct: a soluble cytosolic fraction of the finally obtained supernate was used as the crude enzyme sample of N-cNOS; from tissue; host or cells: cerebral cortex of normal untreated male SD rats, 100,000×g soluble cytosolic fraction
T3 sequence (P29476 whole entry): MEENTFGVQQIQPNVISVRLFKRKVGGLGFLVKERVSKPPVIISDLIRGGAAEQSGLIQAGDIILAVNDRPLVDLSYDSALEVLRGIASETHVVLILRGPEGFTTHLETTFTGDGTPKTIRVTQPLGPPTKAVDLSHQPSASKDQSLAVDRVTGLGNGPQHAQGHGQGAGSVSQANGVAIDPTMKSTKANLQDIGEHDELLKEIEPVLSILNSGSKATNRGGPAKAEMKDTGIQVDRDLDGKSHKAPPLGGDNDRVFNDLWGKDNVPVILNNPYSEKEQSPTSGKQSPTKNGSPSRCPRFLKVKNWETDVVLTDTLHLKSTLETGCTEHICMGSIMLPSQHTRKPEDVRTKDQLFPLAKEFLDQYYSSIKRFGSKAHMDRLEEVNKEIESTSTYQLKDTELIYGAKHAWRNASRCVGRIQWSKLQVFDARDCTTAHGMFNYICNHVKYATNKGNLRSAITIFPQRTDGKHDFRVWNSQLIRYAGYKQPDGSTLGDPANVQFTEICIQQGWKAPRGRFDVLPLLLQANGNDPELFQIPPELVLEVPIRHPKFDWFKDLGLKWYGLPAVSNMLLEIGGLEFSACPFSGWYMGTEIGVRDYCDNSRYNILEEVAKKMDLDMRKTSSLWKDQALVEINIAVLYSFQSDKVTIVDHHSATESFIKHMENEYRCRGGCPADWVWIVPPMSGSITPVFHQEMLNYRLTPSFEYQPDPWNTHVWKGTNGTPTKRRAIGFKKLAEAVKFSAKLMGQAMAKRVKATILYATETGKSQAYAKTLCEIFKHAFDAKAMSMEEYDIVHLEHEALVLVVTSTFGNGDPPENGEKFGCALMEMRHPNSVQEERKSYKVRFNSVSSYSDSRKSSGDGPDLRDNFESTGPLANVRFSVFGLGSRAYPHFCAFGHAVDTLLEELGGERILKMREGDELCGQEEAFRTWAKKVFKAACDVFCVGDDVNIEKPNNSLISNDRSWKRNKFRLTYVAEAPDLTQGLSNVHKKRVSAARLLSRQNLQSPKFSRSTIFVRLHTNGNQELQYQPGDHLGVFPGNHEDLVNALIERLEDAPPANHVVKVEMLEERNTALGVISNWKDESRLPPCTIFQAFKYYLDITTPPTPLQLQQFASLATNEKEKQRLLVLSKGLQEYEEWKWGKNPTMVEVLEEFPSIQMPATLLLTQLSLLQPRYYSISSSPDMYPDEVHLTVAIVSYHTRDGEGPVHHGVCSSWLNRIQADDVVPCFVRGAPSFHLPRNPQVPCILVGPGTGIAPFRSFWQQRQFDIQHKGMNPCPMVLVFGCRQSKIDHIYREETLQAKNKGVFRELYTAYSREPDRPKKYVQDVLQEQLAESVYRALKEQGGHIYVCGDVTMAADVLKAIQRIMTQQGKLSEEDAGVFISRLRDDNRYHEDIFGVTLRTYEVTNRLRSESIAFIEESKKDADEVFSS

[4] = tested on: iNOS; settings: cited from earlier work
[5] = read-out: IC50 value iNOS (the concentration necessary to inhibit 50% activity), iNOS, LPS rat lung, 100 μM L-[3H] arginine, 37° C., 10 min, pH 7.4, mean ± standard error
[6] = E-cNOS, CPAE homogenate, 100 μM L-[3H] arginine, 37° C., 10 min, pH 7.4, mean ± standard error
[7] = iNOS, LPS rat lung, 100 μM L-[3H] arginine, 37° C., 10 min, pH 7.4, mean ± standard error
[8] = index of selectivity, N-cNOS vs E-cNOS
[9] = index of selectivity, N-cNOS vs iNOS
[10] = compared with existing NOS inhibitors, dihydrochloride

IC50 [2, 7] [µM] | SMILES | IC50 [1, 6] [µM] | IC50 [3] [µM] | Ratio of I50 values E-cNOS/N-cNOS [3, 8] | Ratio of I50 values iNOS/N-cNOS [3, 9] | other results
0.458 ± 0.0858 | CC(=N)NCCC[C@H](N)C(=O)O [L-NIO, N^G -iminoethyl-ornithine, reference compound] |  |  |  |  | 
4.5 | CCCSC(=N)NCCC[C@H](N)C(=O)O [Example 12, δ-(S-(n-propyl)isothioureido)-L-norvaline] | 12.5 | 1.34 | 9.3 | 3.4 | 
12 | C=CCNC(=N)NCCC[C@H](N)C(=O)O [L-ALA, N^G -allyl-L-arginine, reference compound] |  |  | 15.2 | 12.1 | 

Second part, the compound before the results:

SMILES | IC50 [2, 7] [µM] | IC50 [1, 6] [µM] | IC50 [3] [µM] | Ratio of I50 values E-cNOS/N-cNOS [3, 8] | Ratio of I50 values iNOS/N-cNOS [3, 9] | other results
CCSC(=N)NCCC[C@H](N)C(=O)O [Example 2, δ-(S-ethylisothioureido)-L-norvaline] |  |  |  |  |  | E-cNOS inhibitory effect (in words) [1]: weak E-cNOS inhibitory effect; IC50 [1]: 0.492 ± 0.315 µM; IC50 [2, 5]: 6.76 µM; N-cNOS inhibitory effect (in words) ([3]; compared with existing NOS inhibitors): stronger N-cNOS inhibitory effect than the existing NOS inhibitors; also recorded: strong brain N-cNOS inhibitory effect
N[C@@H](CCCNC1=NCCS1)C(=O)O [Example 8, δ-(2,3-dehydrothiazolin-2-yl)amino-L-norvaline dihydrochloride] | 5.41 | 3.32 | 0.564 ± 0.284 | 5.9 | 9.6 | 
Cl.Cl.N=C(NCCC[C@H](N)C(=O)O)SCCF [Example 4, δ-(S-(2-fluoroethyl)-isothioureido)-L-norvaline dihydrochloride] | 0.501 | 1.31 | 0.0105 ± 0.0008 | 124.9 | 47.7 | E-cNOS inhibitory effect (in words) [1]: weak E-cNOS inhibitory effect; selectivity for N-cNOS or E-cNOS (in words) ([3]; N-cNOS vs E-cNOS, compared with existing NOS inhibitors, dihydrochloride): more selective inhibitory effect on N-cNOS compared with the existing NOS inhibitors; also recorded: outstandingly high selective inhibitory effect on brain N-cNOS; N-cNOS inhibitory effect (in words) [3, 10]: stronger N-cNOS inhibitory effect than the existing NOS inhibitors; also recorded: strong brain N-cNOS inhibitory effect; N-cNOS selective inhibitory effect (in words) ([3]; over existing NOS inhibitors): by far superior N-cNOS selective inhibitory effect over the existing NOS inhibitors
COC(=O)[C@@H](N)CCCNC(=N)N[N+](=O)[O-] [L-NAME, N^G -nitro-L-arginine methyl ester, reference compound] |  |  |  |  |  | IC50 [2, 5]: 13.5 µM
CSC(=N)NCCCC[C@H](N)C(=O)O.Cl.Cl [Example 10, ε-(S-methylisothioureido)-L-norleucine dihydrochloride] | 10.4 | 6.41 | 1.26 | 5.1 | 8.3 | 
C=CCSC(=N)NCCC[C@H](N)C(=O)O.Cl.Cl [Example 6, δ-(S-(2-propenyl)isothioureido)-L-norvaline dihydrochloride] | 0.298 | 1.18 | 0.113 ± 0.006 | 10.4 | 2.6 | iNOS inhibitory effect (in words) [2, 10]: by far stronger iNOS inhibitory effect than the existing NOS inhibitors; also recorded: strong iNOS inhibitory effect; iNOS selective inhibitory effect (in words) ([2]; over existing NOS inhibitors): by far superior iNOS selective inhibitory effect over the existing NOS inhibitors; selectivity for N-cNOS or iNOS (in words) ([3]; N-cNOS vs iNOS, compared with existing NOS inhibitors, dihydrochloride): extremely high selective inhibitory effect on iNOS
N=C(N)NN [AG, aminoguanidine, reference compound] |  |  |  |  | 1.3 | selectivity for iNOS vs E-cNOS (in words) ([4]; Griffith et al. 1993): selectivity for iNOS in comparison with the E-cNOS inhibiting action; inhibiting potency and selectivity for iNOS (in words) ([4]; as a therapeutic against hypotension in sepsis): insufficient to warrant its use as a therapeutic effective against hypotension in sepsis; IC50 [2]: 27.2 µM; Ratio of I50 values E-cNOS/N-cNOS [3]: > 4.9
N=C(NCCC[C@H](N)C(=O)O)NC1CC1 [L-CPA, N^G -cyclopropyl-L-arginine, reference compound] |  | 1.48 |  |  |  | IC50 [2, 5]: 7.15 µM
O=[N+]([O-])c1cccc2cn[nH]c12 [Example 7-NI, 7-nitroindazole, reference compound] | 6.93 |  |  |  |  | 
